What was measured:
human PRS protein = target: T1, human PRS protein (Homo sapiens, UniProt P07814); test: PRS inhibitory activity (ATP/[32P]pyrophosphate exchange enzyme reaction); type: biochemical; details: 300 nM test compound; recombinant human PRS (EPRS 998-1512); read-out: inhibitory rate (%) of PRS
T1 construct: to construct His-Avi-hEPRS (998-1512) expression plasmid; His tag (N); Avi tag (N); TEV cleavage site (ENLYFQ/GS, encoded by forward primer hEPRS-TEV-NheF) (N); made in house; host or cells: E. coli BL21(DE3)
T1 sequence (P07814 998-1512): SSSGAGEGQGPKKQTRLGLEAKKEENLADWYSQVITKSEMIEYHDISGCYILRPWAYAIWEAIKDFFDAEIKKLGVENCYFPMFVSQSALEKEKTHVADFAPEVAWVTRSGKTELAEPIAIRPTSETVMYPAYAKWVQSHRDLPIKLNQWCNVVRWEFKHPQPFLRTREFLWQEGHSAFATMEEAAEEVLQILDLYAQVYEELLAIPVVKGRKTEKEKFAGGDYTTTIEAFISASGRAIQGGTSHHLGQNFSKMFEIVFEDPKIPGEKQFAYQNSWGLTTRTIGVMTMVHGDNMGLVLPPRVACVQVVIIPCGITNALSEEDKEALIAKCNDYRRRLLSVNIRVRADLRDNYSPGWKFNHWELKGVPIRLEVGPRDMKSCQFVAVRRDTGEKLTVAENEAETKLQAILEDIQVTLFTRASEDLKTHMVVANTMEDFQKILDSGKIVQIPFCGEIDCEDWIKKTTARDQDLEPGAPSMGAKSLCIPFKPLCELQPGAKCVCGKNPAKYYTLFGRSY
Experimental: The PRS inhibitory activity of the compounds of the present invention was evaluated by the following method.
An expression plasmid of Catalytic Domain of human EPRS was obtained by PCR using human skeletal muscle cDNA Library (Takara Bio Inc.) as a template and 2 kinds of Primers 5′-[…]-3′ (hEPRS-TEV-NheF) (SEQ ID NO: 1) and 5′-[…]-3′ (hEPRS-St-Not-R) (SEQ ID NO: 2). PCR was performed using PrimeStar GXL DNA Polymerase (Takara Bio Inc.) and included (1) 98° C., 1 min, (2) cycles of 98° C., 10 sec, 65° C., 10 sec, 72° C., 1 min, and (3) reaction at 72° C., 1 min. This was cleaved with Nhe I and Not I (Takara Bio Inc.) and inserted using Ligation High (TOYOBO CO., LTD.) into the Nhe I/Not I site of pET21a (Novagen) with His-Avitag inserted thereinto. This was introduced into ECOS JM109 (NIPPON GENE CO., LTD.) to construct His-Avi-hEPRS (998-1512) expression plasmid.
Recombinant human PRS protein was prepared by transforming the His-Avi-hEPRS (998-1512) expression plasmid prepared above into ECOS Competent E. coli BL21(DE3) (NIPPON GENE CO., LTD.). Escherichia coli obtained by transformation was inoculated into 300 mL of LB medium (1% peptone, 0.5% yeast extract, 0.5% sodium chloride, 0.01% ampicillin) and cultured at 30° C. for 16 hr. The obtained culture medium was transferred into a jar culture tank charged with 6 L of the main fermentation medium (0.3% potassium dihydrogen phosphate, 0.6% disodium hydrogen phosphate, 0.1% ammonium chloride, 0.05% sodium chloride, 0.024% magnesium sulfate, 0.02% NEWPOL LB-625, 1.5% sorbitol, 1.5% casamino acid, 0.5% yeast extract, 0.01% ampicillin) and culturing was started at 37° C., quantity of airflow 5 L/min, stirring rotating speed 400 rpm. At the time point when the turbidity of the culture medium reached about 550 Klett units, the culture temperature was lowered to 16° C., isopropyl-β-D-thiogalactopyranoside (IPTG) was added to the final concentration 0.1 mM, and culturing was performed for another 16 hr to induce expression of human PRS. After completion of culturing, the culture medium was centrifuged at 5,000 rpm for 10 min. The obtained human PRS expressing Escherichia coli was suspended in a buffer containing 50 mM Tris-HCl (pH 8.0), 150 mM NaCl, 1 mM DTT, 5 U/ml Benzonase, 20 mM Imidazole and sonicated using Sonifier (BRANSON). The homogenate was centrifuged (33,000×G, 60 min, Beckman Coulter), the obtained supernatant was subjected to adsorption by passage through Ni-NTA Superflow (QIAGEN) column equilibrated in advance with 50 mM Tris-HCl (pH 8.0), 300 mM NaCl, 1 mM DTT, and elution was performed with a buffer containing 50 mM Tris-HCl (pH 8.0), 300 mM NaCl, 1 mM DTT, 250 mM Imidazole. Furthermore, gel filtration was performed using […] equilibrated in advance with a buffer containing 50 mM Tris-HCl (pH 8.0), 150 mM NaCl, 1 mM DTT, 10% glycerol to give purified human PRS protein. The protein concentration was measured using BCA Protein Assay Kit (PIERCE) and BSA as the standard.
A test compound was dissolved in 5 μL of an assay buffer (50 mM Tris-HCl (pH 7.5), 20 mM KCl, 1 mM DTT, 0.01% Tween 20) and incubated for 60 min with 5 μL of 40 nM human PRS protein dissolved in the assay buffer containing 40 mM MgCl2. An enzyme reaction of the human PRS protein was started by adding 10 μL of a substrate solution containing 300 μM ATP, 160 μM L-Proline, 400 μM pyrophosphate, [^32P]pyrophosphate (PerkinElmer, Waltham, Mass.) prepared to 1 MBq/mL. After incubation at room temperature for 30 min, the reaction was discontinued by adding 50 μL of discontinuation/washing solution (1M HCl, 200 mM sodium pyrophosphate) to the reaction mixture. The reaction solution was transferred to a filter plate (Merck Millipore, Billerica, Mass.) previously added with 200 μL of charcoal solution (0.5% HCl solution containing 10% charcoal (w/v)). […]

[1] = tested on: human ovarian cancer cell A2780; test: proliferation inhibitory activity against A2780 cells (CellTiter-Glo); type: cell-based; details: A2780, 72 h, 1 μM test compound, 3 days of culture, read-out: proliferation inhibitory rate (%) of A2780 cells
Experimental: The proliferation inhibitory activity of the compound of the present invention against human ovarian cancer cell A2780 was evaluated by the following method.
Human ovarian cancer cells A2780 were seeded in a 384 well culture plate at 1000 cells in 30 μL of medium per well by using RPMI-1640 medium (Wako Pure Chemical Industries, Ltd.) containing 10% fetal bovine serum and penicillin/streptomycin. The next day, 10 μL of RPMI-1640 medium containing the test compound was added to the cells. After 3 days of culture, 20 μL of CellTiter-Glo Luminescent Cell Viability Assay solution (Promega, Fitchburg, Wis., US) was added. The luminescence signal was measured using EnVision (PerkinElmer, Waltham, Mass., US) and the inhibitory rate (%) of the test compound was calculated with a well free of seeding of cell as 100% inhibition.

SMILES | inhibition at 0.3 µM (human PRS protein) [%] | inhibition at 1 µM [1] [%]
N#C[C@@]1(C2CC2)CCN(c2ccnc(NC(=O)Cc3cccc(-c4cnn(CC5COCCO5)c4)c3)c2)C1=O (stereo partly drawn) [Example 85, N-(4-((3S)-3-cyano-3-cyclopropyl-2-oxopyrrolidin-1-yl)pyridin-2-yl)-2-(3-(1-(1,4-dioxan-2-ylmethyl)-1H-pyrazol-4-yl)phenyl)acetamide] | 99 | 54
CC(C)(C)OC(=O)n1cc(-c2cccc(CC(=O)Nc3cc(N4CC[C@@](C#N)(C5CC5)C4=O)ccn3)c2)cn1 [Example 55, tert-butyl 4-(3-(2-((4-((3S)-3-cyano-3-cyclopropyl-2-oxopyrrolidin-1-yl)pyridin-2-yl)amino)-2-oxoethyl)phenyl)-1H-pyrazole-1-carboxylate] | 99 | 67
COCCCn1cc(-c2cccc(CC(=O)Nc3cc(N4CC[C@@](C#N)(C5CC5)C4=O)ccn3)c2)cn1 [Example 74, N-(4-((3S)-3-cyano-3-cyclopropyl-2-oxopyrrolidin-1-yl)pyridin-2-yl)-2-(3-(1-(3-methoxypropyl)-1H-pyrazol-4-yl)phenyl)acetamide] | 98 | 62
N#C[C@@]1(C2CC2)CCN(c2ccnc(NC(=O)Cc3cccc(-c4cnsc4)c3)c2)C1=O [Example 50, N-(4-((3S)-3-cyano-3-cyclopropyl-2-oxopyrrolidin-1-yl)pyridin-2-yl)-2-(3-(1,2-thiazol-4-yl)phenyl)acetamide] | 99 | 78
Cc1cc(N2CC[C@@](C#N)(C3CC3)C2=O)cc(NC(=O)Cc2cc(F)cc(-c3cn(C)nn3)c2)n1 [Example 57, N-(4-((3S)-3-cyano-3-cyclopropyl-2-oxopyrrolidin-1-yl)-6-methylpyridin-2-yl)-2-(3-fluoro-5-(1-methyl-1H-1,2,3-triazol-4-yl)phenyl)acetamide] | 99 | 94
Cn1cc(-c2cccc(CC(=O)Nc3cc(N4CC[C@@](C#N)(C5CC5)C4=O)ccn3)c2)cn1 [Example 26, N-(4-((3S)-3-cyano-3-cyclopropyl-2-oxopyrrolidin-1-yl)pyridin-2-yl)-2-(3-(1-methyl-1H-pyrazol-4-yl)phenyl)acetamide] | 100 | 92
Cc1cc(N2CC[C@@](C#N)(C3CC3)C2=O)cc(NC(=O)Cc2cccc(-c3cn(C)nc3C)c2)n1 [Example 102, N-(4-((3S)-3-cyano-3-cyclopropyl-2-oxopyrrolidin-1-yl)-6-methylpyridin-2-yl)-2-(3-(1,3-dimethyl-1H-pyrazol-4-yl)phenyl)acetamide] | 100 | 89
Cn1cc(-c2cccc(CC(=O)Nc3cc(N4CC[C@@](C#N)(C5CC5)C4=O)cc(C(F)F)n3)c2)cn1 [Example 65, N-(4-((3S)-3-cyano-3-cyclopropyl-2-oxopyrrolidin-1-yl)-6-(difluoromethyl)pyridin-2-yl)-2-(3-(1-methyl-1H-pyrazol-4-yl)phenyl)acetamide] | 95 | 75
N#C[C@@]1(C2CC2)CCN(c2ccnc(NC(=O)Cc3cccc(-c4cnn(CCCC(F)(F)F)c4)c3)c2)C1=O [Example 90, N-(4-((3S)-3-cyano-3-cyclopropyl-2-oxopyrrolidin-1-yl)pyridin-2-yl)-2-(3-(1-(4,4,4-trifluorobutyl)-1H-pyrazol-4-yl)phenyl)acetamide] | 98 | 61
N#C[C@@]1(C2CC2)CCN(c2ccnc(NC(=O)Cc3cccc(-c4cnn(CC(F)(F)C(F)F)c4)c3)c2)C1=O [Example 95, N-(4-((3S)-3-cyano-3-cyclopropyl-2-oxopyrrolidin-1-yl)pyridin-2-yl)-2-(3-(1-(2,2,3,3-tetrafluoropropyl)-1H-pyrazol-4-yl)phenyl)acetamide] | 99 | 70
Cn1cc(-c2cc(F)cc(CC(=O)Nc3cc(N4CC[C@@](C#N)(C5CC5)C4=O)ccn3)c2)cn1 [Example 35, N-(4-((3S)-3-cyano-3-cyclopropyl-2-oxopyrrolidin-1-yl)pyridin-2-yl)-2-(3-fluoro-5-(1-methyl-1H-pyrazol-4-yl)phenyl)acetamide] | 102 | 97
Cc1cc(-c2cccc(CC(=O)Nc3cc(N4CC[C@@](C#N)(C5CC5)C4=O)cc(C)n3)c2)cnn1 [Example 103, N-(4-((3S)-3-cyano-3-cyclopropyl-2-oxopyrrolidin-1-yl)-6-methylpyridin-2-yl)-2-(3-(6-methylpyridazin-4-yl)phenyl)acetamide] | 97 | 67
N#C[C@@]1(C2CC2)CCN(c2ccnc(NC(=O)Cc3cccc(-c4cnn(CC5CCCO5)c4)c3)c2)C1=O (stereo partly drawn) [Example 76, N-(4-((3S)-3-cyano-3-cyclopropyl-2-oxopyrrolidin-1-yl)pyridin-2-yl)-2-(3-(1-(tetrahydrofuran-2-ylmethyl)-1H-pyrazol-4-yl)phenyl)acetamide] | 98 | –
N#C[C@@]1(C2CC2)CCN(c2ccnc(NC(=O)Cc3cccc4ccccc34)n2)C1=O [Example 128, N-(4-((3S)-3-cyano-3-cyclopropyl-2-oxopyrrolidin-1-yl)pyrimidin-2-yl)-2-(1-naphthyl)acetamide] | 95 | –
N#C[C@@]1(C2CC2)CCN(c2ccnc(NC(=O)Cc3cccc(F)c3)c2)C1=O [Example 13, N-(4-((3S)-3-cyano-3-cyclopropyl-2-oxopyrrolidin-1-yl)pyridin-2-yl)-2-(3-fluorophenyl)acetamide] | 89 | –

— patent US10800754B2, “Heterocyclic amide compound” (TAKEDA PHARMACEUTICAL COMPANY LIMITED, priority 2016, dated 2020)
